We go through 34 compounds from patent publication US8563565B2, “Pyrazoloquinoline derivatives” (Eisai R&D Management Co., Ltd., priority 2011, dated 2013).

T1 sequence (O76083 whole entry): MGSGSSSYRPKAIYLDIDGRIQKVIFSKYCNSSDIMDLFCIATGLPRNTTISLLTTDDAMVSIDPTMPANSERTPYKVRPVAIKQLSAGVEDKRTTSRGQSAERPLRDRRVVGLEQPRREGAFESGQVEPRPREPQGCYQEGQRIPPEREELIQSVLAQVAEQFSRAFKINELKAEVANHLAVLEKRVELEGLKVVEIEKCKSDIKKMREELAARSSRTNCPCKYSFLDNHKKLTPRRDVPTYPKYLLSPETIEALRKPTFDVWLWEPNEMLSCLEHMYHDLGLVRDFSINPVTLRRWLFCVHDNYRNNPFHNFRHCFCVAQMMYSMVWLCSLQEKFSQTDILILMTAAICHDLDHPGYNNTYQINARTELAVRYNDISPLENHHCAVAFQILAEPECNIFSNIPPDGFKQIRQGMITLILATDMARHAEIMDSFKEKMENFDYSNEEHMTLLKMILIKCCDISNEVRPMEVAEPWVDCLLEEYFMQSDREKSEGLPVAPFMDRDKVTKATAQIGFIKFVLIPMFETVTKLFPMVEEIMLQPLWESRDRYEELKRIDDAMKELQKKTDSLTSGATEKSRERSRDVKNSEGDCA

This test concerns the target T1, human recombinant PDE9 protein (Homo sapiens, UniProt O76083).
T1 construct: His-tag (inferred from the Ni column purification; a myc His-tag vector is named only for the HEK293 expression check); made in house; host or cells: silkworm (pYNG vector, Katakura Industries)
Briefly: PDE9 inhibitory activity test (measurement of PDE9 inhibitory action, [3H]-cGMP). It counts as biochemical. The conditions noted are these: PDE9 IC50, human recombinant PDE9, 30° C., 10 min. The text has this: 1) Preparation of a Human Recombinant PDE9 Protein
An hsPDE9A 1cDNA fragment was amplified by being based on a base sequence (Accession No.: AF048837) of the hsPDE9A1 registered on GenBank data base, and by using the following sequences (Hokkaido System Science Co., Ltd.) as a primer and Human hippocampus cDNA library (Clontech Laboratories, Inc.) as a template DNA, and using Pfu50 DNA polymerase (Invitrogen Corp.), and by a polymerase chain reaction (PCR) of the following condition.
The condition of PCR: [96° C., 5 min]×1 cycle, [(96° C., 10 sec), (57° C., 5 sec), (72° C., 2 min)]×30 cycles
The obtained hsPDE9A 1 cDNA fragment was incorporated in a TOPO-TA cloning vector (Invitrogen Corp.), and the base sequence was checked; and thereafter, the resultant was transfected in a pcDNA 3.1/myc His-tag vector (Invitrogen Corp.) to thereby make a human PDE9 expression vector for mammal cells. The human PDE9 expression vector for mammal cells was transfected with transient expression to an HEK293 cell by using a LIPOFETAMINE 2000 Reagent (Gibco). It was confirmed by Western blot method that the PDE9A expressed in the HEK293 cell, and then, the human PDE9A 1cDNA fragment was transfected in a pYNG vector (Katakura Industries Co., Ltd.) to thereby make an expression vector for insect cells. A supernatant of homogenized silk worm in which a large amount of PDE9 was expressed was purified by an equilibrated Ni column using a buffer A (20 mmol/L Tris-HCl, pH: 8.0, 1 mmol/L DTT, 10 mmol/L imidazole). After 1 hour of mixing of the supernatant and the Ni column, cleaning was carried out using a buffer B (20 mmol/L Tris-HCl, pH: 8.0, 1 mmol/L […]), and elution was carried out using a buffer C (20 mmol/L Tris-HCl, pH: 8.0, 1 mmol/L DTT, 100 mmol/L imidazole). An elution fraction was preparatively collected to thereby obtain a PDE9 enzyme solution.
2) Measurement of PDE9 Inhibitory Action
To 100 μL of a buffer D (40 mmol/L Tris-HCl, pH: 7.4, 10 mmol/L MgCl2, 1 mM DTT, 2 μM cGMP) solution containing [^3H]-cGMP ([…]/mL), 10 μL of a compound solution for evaluation (a solution in which a compound was dissolved in DMSO and diluted so that the DMSO concentration became 5%) and 90 μL of a solution prepared by diluting the PDE9 enzyme solution prepared in the above with a buffer E (40 mmol/L Tris-HCl, pH: 7.4, 10 mmol/L MgCl2, 1 mM DTT, 1 mmol/L EGTA) were added under ice cooling. The resultant mixed solution was incubated at 30° C. for 10 min, and thereafter heated for 2 min in boiled water to stop the enzyme reaction of the PDE9. Then, the resultant was returned to room temperature; 50 μL of 5′-Nucleotidase (Biomol GmbH, 10 units/mL) was added thereto; and the resultant was incubated at 30° C. for 10 min to thereby convert [^3H]-5′-GMP formed in the previous reaction to [^3H]-guanosine. 500 μL of an anion exchange resin (Bio-Rad AG1-X2 resin, mesh size: 200-400, H2O:resin=2:1) was added to the resultant reaction liquid, and allowed to stand for 10 min, and thereafter centrifuged (2,000 rpm, 10 min); and a supernatant in which the [^3H]-guanosine was present was transferred to a LumaPlate (PerkinElmer, Inc.), and the radioactivity was measured by a TopCount NXT microplate scintillation and luminescence counter (PerkinElmer, Inc.).
The inhibition percentage of the evaluation compound was calculated using the following expression, taking the radioactivity of a control containing no evaluation compound to be (A), the radioactivity of a blank containing no enzyme to be (B), and the radioactivity of the evaluation compound to be (C). Inhibition percentage=100−{[(C)−(B)]/[(A)−(B)]}×100(%)
The IC50 value for PDE9 of the evaluation compound was determined from inhibition percentage for various concentrations.
Consider `COc1ncc(C)c(-c2ccc3c(c2)[nH]c(=O)c2cnn(C4CCCOC4)c23)c1C` (single isomer, unassigned) [36 (+)], for which the IC50 turned out to be 0.00898 µM. For `Cc1cnc(OC(C)C)c(C)c1-c1ccc2c(c1)[nH]c(=O)c1cnn([C@H]3CCOC3)c12` [Example 48, (S)-7-(2-isopropyloxy-3,5-dimethylpyridin-4-yl)-1-(tetrahydrofuran-3-yl)-1H-pyrazolo[4,3-c]quinolin-4(5H)-one], the IC50 is 0.00835 µM. For the compound `COc1ncc(C)c(-c2ccc3c(c2)[nH]c(=O)c2cnn([C@H]4CCOC4)c23)c1C` [25 (−)S], the IC50 worked out at 0.00943 µM. Then `Cc1cc(C#N)nc(C)c1-c1ccc2c(c1)[nH]c(=O)c1cnn(C3CCOCC3)c12` [Example 13], with 0.0367 µM; and `COc1ncc(C)c(-c2ccc3c(c2)[nH]c(=O)c2cnn(C4CCCOCC4)c23)c1C` (single isomer, unassigned; (-)) [41 (−), (−)-7-(2-methoxy-3,5-dimethylpyridin-4-yl)-1-(oxepan-4-yl)-1H-pyrazolo[4,3-c]quinolin-4(5H)-one], with 0.0121 µM; and `COc1cc(C)c(-c2ccc3c(c2)[nH]c(=O)c2cnn(C4CCCOC4)c23)c(CF)n1` (single isomer, unassigned) [38 (−)], with 0.0124 µM. As for `COc1nc(C)c(-c2ccc3c(c2)[nH]c(=O)c2cnn(C4CCOCC4)c23)c(OC)n1` [Example 14], the figure is 0.0212 µM; as for `COc1ncc(C)c(-c2ccc3c(c2)[nH]c(=O)c2cnn([C@@H]4CCOC4)c23)c1C` [25 (+)R], 0.041 µM; as for `COc1nccc(C)c1-c1ccc2c(c1)[nH]c(=O)c1cnn(C3COCCOC3)c12` [Example 47], 0.00567 µM.

On to `COc1cc(C)c(-c2ccc3c(c2)[nH]c(=O)c2cnn(C4CCCOC4)c23)c(CF)n1` (single isomer, unassigned) [38 (+)], for which the IC50 stood at 0.0171 µM. In the case of `CCOc1nccc(C)c1-c1ccc2c(c1)[nH]c(=O)c1cnn(C3CCOCC3)c12` [Example 23, 7-(2-ethoxy-4-methylpyridin-3-yl)-1-(tetrahydro-2H-pyran-4-yl)-1H-pyrazolo[4,3-c]quinolin-4(5H)-one], the IC50 worked out at 0.00951 µM.

With `Cc1cc(Cl)c(-c2ccc3c(c2)[nH]c(=O)c2cnn(C4CCOCC4)c23)c(C)n1` [Example 9], the IC50 worked out at 0.0217 µM. Regarding `Cc1cc(CF)nc(C)c1-c1ccc2c(c1)[nH]c(=O)c1cnn(C3CCOCC3)c12` [Example 19], the concentration for half-maximal inhibition (IC50) is 0.013 µM. With `COc1ncc(C)c(-c2ccc3c(c2)[nH]c(=O)c2cnn(C4CCCOCC4)c23)c1C` (single isomer, unassigned; (+)) [41 (+), (+)-7-(2-methoxy-3,5-dimethylpyridin-4-yl)-1-(oxepan-4-yl)-1H-pyrazolo[4,3-c]quinolin-4(5H)-one], the IC50 is 0.00591 µM. Consider `COc1ncc(C)c(-c2ccc3c(c2)[nH]c(=O)c2cnn(C4CCCOC4)c23)c1C` (single isomer, unassigned) [36 (−)], for which the IC50 was found to be 0.0081 µM. `COc1nc(CF)cc(C)c1-c1ccc2c(c1)[nH]c(=O)c1cnn(C3CCOCC3)c12` [Example 17]: the IC50 was 0.00608 µM. `COc1nccc(C)c1-c1ccc2c(c1)[nH]c(=O)c1cnn(C3CCOC3)c12` (single isomer, unassigned) [32 (+)]: the IC50 came to 0.0707 µM. `Cc1cc(C2CCOCC2)cc(C)c1-c1ccc2c(c1)[nH]c(=O)c1cnn(C3CCOCC3)c12` [Example 40, 7-[2,6-dimethyl-4-(tetrahydro-2H-pyran-4-yl)phenyl]-1-(tetrahydro-2H-pyran-4-yl)-1H-pyrazolo[4,3-c]quinolin-4(5H)-one]: the IC50 was 0.00321 µM. `Cc1cc(C)c(-c2ccc3c(c2)[nH]c(=O)c2cnn(C4CCOCC4)c23)c(C(F)F)n1` [Example 21]: the IC50 was 0.0539 µM. Regarding `COc1nccc(C)c1-c1ccc2c(c1)[nH]c(=O)c1cnn(C3CCCOC3)c12` (single isomer, unassigned) [39 (+)], the IC50 was 0.00507 µM. As for `COc1cc(C)c(-c2ccc3c(c2)[nH]c(=O)c2cnn(C4CCCOCC4)c23)c(C)c1` (single isomer, unassigned) [42 (+)], the figure is 0.00881 µM; as for `Cc1cccc(C)c1-c1ccc2c(c1)[nH]c(=O)c1cnn(C3CCOCC3)c12` [Example 1, 7-(2,6-dimethylphenyl)-1-(tetrahydro-2H-pyran-4-yl)-1H-pyrazolo[4,3-c]quinolin-4(5H)-one], 0.0243 µM. In the case of `COc1nc(C)cc(C)c1-c1ccc2c(c1)[nH]c(=O)c1cnn(C3COCCOC3)c12` [Example 45, 1-(1,4-dioxepan-6-yl)-7-(2-methoxy-4,6-dimethylpyridin-3-yl)-1H-pyrazolo[4,3-c]quinolin-4(5H)-one], the IC50 was 0.00333 µM. As for `COc1cc(CF)c(-c2ccc3c(c2)[nH]c(=O)c2cnn(C4CCOCC4)c23)c(C)n1` [Example 22], the IC50 amounted to 0.0523 µM. As for `COc1nc(C)cc(C)c1-c1ccc2c(c1)[nH]c(=O)c1cnn(C3CCCOC3)c12` (single isomer, unassigned; (+)) [34 (+), (+)-7-(2-methoxy-4,6-dimethylpyridin-3-yl)-1-(tetrahydro-2H-pyran-3-yl)-1H-pyrazolo[4,3-c]quinolin-4(5H)-one], the IC50 amounted to 0.00388 µM. On to `COc1nc(C)cc(C)c1-c1ccc2c(c1)[nH]c(=O)c1cnn([C@@H]3COC[C@H]3OC)c12` (racemic) [Example 60, 7-(2-methoxy-4,6-dimethylpyridin-3-yl)-1-[(3RS,4SR)-4-methoxytetrahydrofuran-3-yl]-1H-pyrazolo[4,3-c]quinolin-4(5H)-one], for which the IC50 turned out to be 0.0311 µM. In the case of `COc1ncc(Cl)c(C)c1-c1ccc2c(c1)[nH]c(=O)c1cnn(C3CCOCC3)c12` [Example 10], the IC50 amounted to 0.0208 µM.

As to `Cc1cc(C(F)F)nc(C)c1-c1ccc2c(c1)[nH]c(=O)c1cnn(C3CCOCC3)c12` [Example 16], the IC50 was determined as 0.00632 µM.

For `COc1ncc(C)c(-c2cc3[nH]c(=O)c4cnn([C@@H]5CCOC5)c4c3cc2F)c1C` [Example 57, (R)-8-fluoro-7-(2-methoxy-3,5-dimethylpyridin-4-yl)-1-(tetrahydrofuran-3-yl)-1H-pyrazolo[4,3-c]quinolin-4(5H)-one], the concentration for half-maximal inhibition (IC50) stood at 0.0439 µM.

For `COc1cc(C)c(-c2ccc3c(c2)[nH]c(=O)c2cnn(C4CCOC4)c23)c(C)n1` (single isomer, unassigned) [29 (+)], the IC50 is 0.137 µM. For the compound `COc1ncc(C)c(-c2ccc3c(c2)[nH]c(=O)c2cnn([C@@H]4COC[C@H]4OC)c23)c1C` (racemic) [Example 61, 7-(2-methoxy-3,5-dimethylpyridin-4-yl)-1-[(3RS,4SR)-4-methoxytetrahydrofuran-3-yl]-1H-pyrazolo[4,3-c]quinolin-4(5H)-one], the IC50 amounted to 0.0775 µM.

Consider `COc1cc(C)c(-c2ccc3c(c2)[nH]c(=O)c2cnn(C4CCCOC4)c23)c(C)n1` (single isomer, unassigned) [37 (+)], for which the IC50 was 0.0109 µM. As for `CCc1c(OC)ncc(C)c1-c1ccc2c(c1)[nH]c(=O)c1cnn([C@H]3CCOC3)c12` [Example 56, (S)-7-(3-ethyl-2-methoxy-5-methylpyridin-4-yl)-1-(tetrahydrofuran-3-yl)-1H-pyrazolo[4,3-c]quinolin-4(5H)-one], the figure is 0.0101 µM; as for `CCOc1ncc(C)c(-c2ccc3c(c2)[nH]c(=O)c2cnn([C@H]4CCOC4)c23)c1C` [Example 50], 0.00651 µM.
